In US10590113B2, “6-hydroxy-4-oxo-1,4-dihydropyrimidine-5-carboxamides as APJ agonists” (priority 2016, dated 2020):

Each molecule was assayed against T1, human APJ receptor (Homo sapiens, UniProt P35414) (assay: Intracellular cAMP Accumulation Assay (APJ hcAMP, HTRF)). Conditions: not given.
T1 construct: expressed in transfected cells; host or cells: HEK293
T1 sequence (P35414 1-380): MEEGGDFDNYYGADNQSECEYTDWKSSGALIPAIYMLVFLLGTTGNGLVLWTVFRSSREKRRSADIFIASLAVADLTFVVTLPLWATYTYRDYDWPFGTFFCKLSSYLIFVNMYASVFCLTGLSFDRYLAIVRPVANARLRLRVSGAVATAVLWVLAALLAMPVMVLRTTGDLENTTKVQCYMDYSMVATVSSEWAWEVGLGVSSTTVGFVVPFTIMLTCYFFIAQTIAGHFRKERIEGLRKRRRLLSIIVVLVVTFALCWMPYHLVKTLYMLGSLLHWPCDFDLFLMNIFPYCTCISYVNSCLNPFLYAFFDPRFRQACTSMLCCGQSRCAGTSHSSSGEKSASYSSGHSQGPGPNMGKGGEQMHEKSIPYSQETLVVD
Format: cell-based
Procedure, shortened: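 Stably transfected HEK293 cells (5,000/well) incubated 30 min at room temperature with serially diluted compound, […] and 2 μM forskolin. cAMP measured by HTRF after 60 min with detection reagents, quantified against a cAMP standard curve; EC50 from variable-slope sigmoidal fit of inhibition of forskolin-stimulated cAMP.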
For CCCCc1nc(=O)c(C(=O)N2CCC(c3ccc(Cl)cn3)C2)c(O)n1-c1c(OC)cccc1OC (stereo not drawn) [Example 1, 2-Butyl-5-(3-(5-chloropyridin-2-yl)pyrrolidine-1-carbonyl)-1-(2,6-dimethoxyphenyl)-6-hydroxypyrimidin-4(1H)-one], the EC50 was 0.01 to 10 nM.

Same assay, conditions: human APJ, cAMP accumulation; potency range class; read-out: hAPJ cAMP EC50 Potency range
In the case of CCn1ccc(-c2nc(=O)c(C(=O)N3CC[C@H](c4ccccc4)C3)c(O)n2-c2c(OC)cccc2OC)n1 [Example 284, 1-(2,6-dimethoxyphenyl)-2-(1-ethyl-1H-pyrazol-3-yl)-6-hydroxy-5-[(3R)-3-phenylpyrrolidine-1-carbonyl]-1,4-dihydropyrimidin-4-one], the EC50 is reported as 0.01 to 10 nM. CCCCc1nc(=O)c(C(=O)N2CCC(c3ccccc3C#N)C2)c(O)n1-c1c(OC)cccc1OC (single isomer, unassigned) [Example 364, 2-(1-(2-butyl-1-(2,6-dimethoxyphenyl)-6-hydroxy-4-oxo-1,4-dihydropyrimidine-5-carbonyl)pyrrolidin-3-yl)benzonitrile] showed an EC50 of 0.01 to 10 nM. CCOCc1nc(=O)c(C(=O)N2CCC(c3c(F)cccc3F)C2)c(O)n1-c1c(OC)cccc1OC (single isomer, unassigned) [Example 353, 5-[3-(2,6-difluorophenyl)pyrrolidine-1-carbonyl]-1-(2,6-dimethoxyphenyl)-2-(ethoxymethyl)-6-hydroxy-1,4-dihydropyrimidin-4-one] gave an EC50 of 0.01 to 10 nM. For COc1cccc(OC)c1-n1c(-c2ccc(C)nc2)nc(=O)c(C(=O)N2CCC(c3c(F)cccc3F)C2)c1O (single isomer, unassigned) [Example 252, 5-[3-(2,6-difluorophenyl)pyrrolidine-1-carbonyl]-1-(2,6-dimethoxyphenyl)-6-hydroxy-2-(6-methylpyridin-3-yl)-1,4-dihydropyrimidin-4-one], the EC50 was 0.01 to 10 nM. With CCc1cccc(CC)c1-n1c(-c2ccn(C(C)C)n2)nc(=O)c(C(=O)N2CCC(c3ncc(Cl)cc3F)C2)c1O (single isomer, unassigned) [Example 290, 5-[3-(5-chloro-3-fluoropyridin-2-yl)pyrrolidine-1-carbonyl]-1-(2,6-diethylphenyl)-6-hydroxy-2-[1-(propan-2-yl)-1H-pyrazol-3-yl]-1,4-dihydropyrimidin-4-one] the EC50 was 0.01 to 10 nM. Molecule CCCCc1nc(=O)c(C(=O)N2CCC(c3ncc(Cl)cc3F)C2)c(O)n1-c1c(OC)cccc1OC (single isomer, unassigned) [Example 357, 2-butyl-5-(3-(5-chloro-3-fluoropyridin-2-yl)pyrrolidine-1-carbonyl)-1-(2,6-dimethoxyphenyl)-6-hydroxypyrimidin-4(1H)-one] has an EC50 of 0.01 to 10 nM. Molecule COc1cccc(OC)c1-n1c(-c2ccc(Cl)nc2)nc(=O)c(C(=O)N2CCC(c3c(F)cccc3F)C2)c1O (single isomer, unassigned) [Example 281, 2-(6-chloropyridin-3-yl)-5-[3-(2,6-difluorophenyl)pyrrolidine-1-carbonyl]-1-(2,6-dimethoxyphenyl)-6-hydroxy-1,4-dihydropyrimidin-4-one] has an EC50 of 0.01 to 10 nM. With CCc1cccc(CC)c1-n1c(-c2nc(C)cs2)nc(=O)c(C(=O)N2CCC(c3ncc(Cl)cc3F)C2)c1O (single isomer, unassigned) [Example 306, 5-[3-(5-chloro-3-fluoropyridin-2-yl)pyrrolidine-1-carbonyl]-1-(2,6-diethylphenyl)-6-hydroxy-2-(4-methyl-1,3-thiazol-2-yl)-1,4-dihydropyrimidin-4-one] the EC50 was 0.01 to 10 nM. COc1cccc(OC)c1-n1c(-c2ccc(F)cc2)nc(=O)c(C(=O)N2CCC(c3ncc(Cl)cc3F)C2)c1O (single isomer, unassigned) [Example 265, 5-[3-(5-chloro-3-fluoropyridin-2-yl)pyrrolidine-1-carbonyl]-1-(2,6-dimethoxyphenyl)-2-(4-fluorophenyl)-6-hydroxy-1,4-dihydropyrimidin-4-one] gave an EC50 of 0.01 to 10 nM.

Same assay, conditions: human APJ, intracellular cAMP accumulation; read-out: hAPJ cAMP EC50 Potency range
With CCc1cccc(CC)c1-n1c(COC(C)C)nc(=O)c(C(=O)N2CCC(c3ccccc3F)C2)c1O (single isomer, unassigned) [Example 25, 1-(2,6-diethylphenyl)-5-(3-(2-fluorophenyl)pyrrolidine-1-carbonyl)-6-hydroxy-2-(isopropoxymethyl) pyrimidin-4(1H)-one] the EC50 was 0.01 to 10 nM. CCCCc1nc(=O)c(C(=O)N2CC[C@@H](c3ccccc3)C2)c(O)n1[C@H](CC)c1ccccc1 [Example 128, 2-butyl-6-hydroxy-3-[(1R)-1-phenylpropyl]-5-[(3S)-3-phenylpyrrolidine-1-carbonyl]-3,4-dihydropyrimidin-4-one] was tested, and the EC50 was 10 to 100 nM. In the case of CCOCc1nc(=O)c(C(=O)N2CCC(c3ccc(F)cc3)C2)c(O)n1-c1c(OC)cccc1OC (single isomer, unassigned) [Example 81, 1-(2,6-dimethoxyphenyl)-2-(ethoxymethyl)-5-[3-(4-fluorophenyl)pyrrolidine-1-carbonyl]-6-hydroxy-1,4-dihydropyrimidin-4-one], the EC50 is reported as 0.01 to 10 nM. CC[C@@H](c1cc(F)cc(F)c1)n1c(-c2nc(C)cs2)nc(=O)c(C(=O)N2CCC(c3ccc(F)cc3)C2)c1O (single isomer, unassigned) [Example 211] showed an EC50 of 0.01 to 10 nM. For CCCCc1nc(=O)c(C(=O)N2CCC(c3ccc(F)cc3)C2)c(O)n1-c1c(OC)cccc1OC (stereo not drawn) [Example 87, 2-butyl-3-(2,6-dimethoxyphenyl)-5-[3-(4-fluorophenyl)pyrrolidine-1-carbonyl]-6-hydroxy-3,4-dihydropyrimidin-4-one], the EC50 was 0.01 to 10 nM. Work on CCOCc1nc(=O)c(C(=O)N2CCC(c3cccc(Cl)c3)C2)c(O)n1-c1c(OC)cccc1OC (racemic) [Example 26, 5-(3-(3-chlorophenyl)pyrrolidine-1-carbonyl)-1-(2,6-dimethoxyphenyl)-2-(ethoxymethyl)-6-hydroxypyrimidin-4(1H)-one] yielded an EC50 of 0.01 to 10 nM. With CCCCc1nc(=O)c(C(=O)N2CC[C@H](c3ccccc3)C2)c(O)n1C(C)c1cccnc1 (stereo partly drawn) [Example 140, 2-butyl-6-hydroxy-5-[(3R)-3-phenylpyrrolidine-1-carbonyl]-3-[1-(pyridin-3-yl)ethyl]-3,4-dihydropyrimidin-4-one] the EC50 was 10 to 100 nM. Work on CC[C@@H](c1cc(F)cc(F)c1)n1c(-c2cnn(C)c2)nc(=O)c(C(=O)N2CCC(c3ccc(Cl)cn3)C2)c1O (single isomer, unassigned) [Example 218] yielded an EC50 of 0.01 to 10 nM. With CC[C@@H](c1cc(F)cc(F)c1)n1c(-c2nc(C)cs2)nc(=O)c(C(=O)N2CCC(c3ccc(Cl)cn3)C2)c1O (single isomer, unassigned) [Example 209] the EC50 was 0.01 to 10 nM. For COc1cccc(OC)c1-n1c(COC(C)C)nc(=O)c(C(=O)N2CCC(c3cccc(F)c3)C2)c1O (single isomer, unassigned) [Example 95, 1-(2,6-dimethoxyphenyl)-5-[3-(3-fluorophenyl)pyrrolidine-1-carbonyl]-6-hydroxy-2-[(propan-2-yloxy)methyl]-1,4-dihydropyrimidin-4-one], the EC50 was 0.01 to 10 nM. COc1cccc(OC)c1-n1c(COC(C)C)nc(=O)c(C(=O)N2CCC(c3c(F)cccc3F)C2)c1O (single isomer, unassigned) [Example 164, 5-[3-(2,6-difluorophenyl)pyrrolidine-1-carbonyl]-1-(2,6-dimethoxyphenyl)-6-hydroxy-2-[(propan-2-yloxy)methyl]-1,4-dihydropyrimidin-4-one] gave an EC50 of 0.01 to 10 nM. In the case of CCCCc1nc(=O)c(C(=O)N2CC[C@@H](c3ccccc3)C2)c(O)n1C(C)C [Example 159, 2-butyl-6-hydroxy-5-[(3S)-3-phenylpyrrolidine-1-carbonyl]-3-(propan-2-yl)-3,4-dihydropyrimidin-4-one], the EC50 is reported as 100 to 300 nM. COc1cccc(OC)c1-n1c(COC(C)C)nc(=O)c(C(=O)N2CCC(c3ccc(F)cc3)C2)c1O (single isomer, unassigned) [Example 94, 1-(2,6-dimethoxyphenyl)-5-[3-(4-fluorophenyl)pyrrolidine-1-carbonyl]-6-hydroxy-2-[(propan-2-yloxy)methyl]-1,4-dihydropyrimidin-4-one] showed an EC50 of 0.01 to 10 nM.

Same assay, conditions: read-out: hAPJ cAMP EC50 Potency range
Work on CCOCc1nc(=O)c(C(=O)N2CCC(c3ccccc3F)CC2)c(O)n1-c1c(OC)cccc1OC [Example 379, 1-(2,6-dimethoxyphenyl)-2-(ethoxymethyl)-5-(4-(2-fluorophenyl)piperidine-1-carbonyl)-6-hydroxypyrimidin-4(1H)-one] yielded an EC50 of 0.01 to 10 nM. CCCCc1nc(=O)c(C(=O)N2CCC(c3ccc(F)cn3)C2)c(O)n1-c1c(OC)cccc1OC (single isomer, unassigned) [Example 370, 2-butyl-1-(2,6-dimethoxyphenyl)-5-(3-(5-fluoropyridin-2-yl)pyrrolidine-1-carbonyl)-6-hydroxypyrimidin-4(1H)-one] gave an EC50 of 0.01 to 10 nM. Molecule CCCCc1nc(=O)c(C(=O)N2CCN(Cc3cccc(F)c3F)CC2)c(O)n1-c1c(OC)cccc1OC [Example 388, 2-butyl-5-(4-(2,3-difluorobenzyl)piperazine-1-carbonyl)-1-(2,6-dimethoxyphenyl)-6-hydroxypyrimidin-4(1H)-one] has an EC50 of 0.01 to 10 nM.

Same assay, conditions: read-out: hAPJ cAMP EC50 Potency range; human APJ, intracellular cAMP accumulation
CCCCc1nc(=O)c(C(=O)N2CCC(c3cccnc3)C2)c(O)n1-c1c(OC)cccc1OC (single isomer, unassigned) [Example 76, 2-butyl-1-(2,6-dimethoxyphenyl)-6-hydroxy-5-[3-(pyridin-3-yl)pyrrolidine-1-carbonyl]-1,4-dihydropyrimidin-4-one] gave an EC50 of 0.01 to 10 nM.
